Measurements as given in patent publication US20170319519A1, “COMBINATION FOR THE TREATMENT OF CONDITIONS INVOLVING MUSCULAR PAIN” (Spherium Biomed S.L., priority 2014, published 2017).

Tested on: patients with temporomandibular pain
Assay: Global pain reduction in TMJ patients, visual analogic scale (VAS)
Format: in vivo
Conditions: n=3 per group, treated 3 times over 24 h, VAS 8 hours after the last administration
Procedure: In order to test the role of vitamin C in the formulation 7 groups of patients (n=3) with temporomandibular pain were administered the following combinations:
Patients were treated 3 times over 24 h, and were asked to evaluate their pain (localized and general) 8 hours after the last administration using a visual analogic scale (VAS) from 1 to 10, being 10 the most positive situation. The results of the two assessments were summed up to obtain the global pain score.

Compound: O=C1O[C@H]([C@@H](O)CO)C(O)=C1O [Group 7, Vitamin C]
- effect on reduction of (global) pain, conclusions in words: worst values in all parameters
- effect on reduction of (global) pain, conclusions in words (listed as Vit C): no effect
